This is an account of results in ChEMBL document CHEMBL1155426, “Discovery of a novel series of semisynthetic vancomycin derivatives effective against vancomycin-resistant bacteria” (J Med Chem, 2010).

Type in all cases: functional
For assay [1], the system named is Staphylococcus aureus. Nature of the assay: Antibacterial activity against vancomycin-susceptible Staphylococcus aureus RN4220.
The subject of assay [2] is Enterococcus faecalis. Kind of assay: Antibacterial activity against vancomycin A-resistant Enterococcus faecalis SR-7914. Particulars: SR7914.
Assay [3] concerns Enterococcus faecium. Kind of assay: Antibacterial activity against vancomycin-susceptible Enterococcus faecium SR-16972. Particulars: SR16972.
Assay [4] has as its system Enterococcus faecalis. Nature of the assay: Antibacterial activity against vancomycin B-resistant Enterococcus faecalis SR-23630. Particulars: SR23630.
Assay [5] deals with Enterococcus faecalis. Kind of assay: Antibacterial activity against vancomycin-susceptible Enterococcus faecalis SR1004.
The subject of assay [6] is Enterococcus faecium. Nature of the assay: Antibacterial activity against vancomycin B-resistant Enterococcus faecium SR-23598. Particulars: SR23598.
In assay [7] the test system is Staphylococcus aureus. Kind of assay: Antibacterial activity against methicillin-resistant vancomycin-susceptible Staphylococcus aureus SR-3637. Particulars: SR3637.
Assay [8] relates to Enterococcus faecium. Nature of the assay: Antibacterial activity against vancomycin A-resistant Enterococcus faecium SR-7940. Particulars: SR7940.
Assay [9] relates to Staphylococcus aureus. Kind of assay: Antibacterial activity against vancomycin A-resistant Staphylococcus aureus VRS2.

Structures are written as SMILES. ≈ marks a conversion by molar mass, not a printed value. A value given as a limit tells only on which side of the number the result lay.

Consider `CN[C@H](CC(C)C)C(=O)N[C@H]1C(=O)N[C@@H](CC(N)=O)C(=O)N[C@H]2C(=O)N[C@H]3C(=O)N[C@H](C(=O)N[C@H](C(=O)O)c4cc(O)cc(O)c4-c4cc3ccc4O)[C@H](O)c3ccc(c(/C=C/CCCc4ccccc4)c3)Oc3cc2cc(c3O[C@@H]2O[C@H](CO)[C@@H](O)[C@H](O)[C@H]2O[C@H]2C[C@](C)(N)[C@H](O)[C@H](C)O2)Oc2ccc(cc2/C=C/CCCc2ccccc2)[C@H]1O`, for which the MIC (usually the smallest concentration in the dilution series that meets the test's criterion for growth inhibition) in assay [1] is 32 µg/mL (≈ 19.2 µM); in assay [2], > 64 µg/mL; in [3] it was 32 µg/mL (≈ 19.2 µM); in [4], > 64 µg/mL; in assay [5] it was 32 µg/mL (≈ 19.2 µM); in assay [6], > 64 µg/mL. The figures for the MIC in assay [7], in assay [8] and in assay [9] were 64 µg/mL (≈ 38.4 µM), > 64 µg/mL and > 64 µg/mL, respectively.

Take `CN[C@H](CC(C)C)C(=O)N[C@H]1C(=O)N[C@@H](CC(N)=O)C(=O)N[C@H]2C(=O)N[C@H]3C(=O)N[C@H](C(=O)N[C@H](C(=O)O)c4cc(O)cc(O)c4-c4cc3ccc4O)[C@H](O)c3ccc(c(-c4ccccc4OC)c3)Oc3cc2cc(c3O[C@@H]2O[C@H](CO)[C@@H](O)[C@H](O)[C@H]2O[C@H]2C[C@](C)(N)[C@H](O)[C@H](C)O2)Oc2ccc(cc2Cl)[C@H]1O`: the MIC in assay [1] was 4 µg/mL (≈ 2.63 µM); in assay [2] it was > 64 µg/mL; in assay [3], 4 µg/mL (≈ 2.63 µM); in assay [4], > 64 µg/mL; in [5] it was 8 µg/mL (≈ 5.26 µM); in [6], > 64 µg/mL. For the same compound, the MIC in assay [7] was 8 µg/mL (≈ 5.26 µM); in assay [8], > 64 µg/mL; in assay [9], 64 µg/mL (≈ 42.1 µM).

Consider `CN[C@H](CC(C)C)C(=O)N[C@H]1C(=O)N[C@@H](CC(N)=O)C(=O)N[C@H]2C(=O)N[C@H]3C(=O)N[C@H](C(=O)N[C@H](C(=O)O)c4cc(O)cc(O)c4-c4cc3ccc4O)[C@H](O)c3ccc(c(/C=C/c4ccccc4)c3)Oc3cc2cc(c3O[C@@H]2O[C@H](CO)[C@@H](O)[C@H](O)[C@H]2O[C@H]2C[C@](C)(N)[C@H](O)[C@H](C)O2)Oc2ccc(cc2Cl)[C@H]1O`, for which the minimal inhibitory concentration (MIC) in assay [1] was 1 µg/mL (≈ 0.659 µM); in assay [2] it was > 64 µg/mL; in assay [3], 1 µg/mL (≈ 0.659 µM); in assay [4], 64 µg/mL (≈ 42.2 µM); in assay [5], 1 µg/mL (≈ 0.659 µM); in assay [6], > 64 µg/mL. In addition, the MIC is 2 µg/mL (≈ 1.32 µM) in assay [7], > 64 µg/mL in assay [8] and 16 µg/mL (≈ 10.5 µM) in assay [9].

For the compound `CN[C@H](CC(C)C)C(=O)N[C@H]1C(=O)N[C@@H](CC(N)=O)C(=O)N[C@H]2C(=O)N[C@H]3C(=O)N[C@H](C(=O)N[C@H](C(=O)O)c4cc(O)cc(O)c4-c4cc3ccc4O)[C@H](O)c3ccc(c(/C=C/c4ccc(OC)cc4)c3)Oc3cc2cc(c3O[C@@H]2O[C@H](CO)[C@@H](O)[C@H](O)[C@H]2O[C@H]2C[C@](C)(N)[C@H](O)[C@H](C)O2)Oc2ccc(cc2Cl)[C@H]1O`, the minimal inhibitory concentration (MIC) in [1] is 1 µg/mL (≈ 0.646 µM); in [2], > 64 µg/mL; in assay [3], 1 µg/mL (≈ 0.646 µM); in [4], 32 µg/mL (≈ 20.7 µM); in [5], 1 µg/mL (≈ 0.646 µM); in assay [6], > 64 µg/mL. Also, the results for the MIC in assay [7], in assay [8] and in [9] were 2 µg/mL (≈ 1.29 µM), > 64 µg/mL and 16 µg/mL (≈ 10.3 µM), respectively.

On to `CN[C@H](CC(C)C)C(=O)N[C@H]1C(=O)N[C@@H](CC(N)=O)C(=O)N[C@H]2C(=O)N[C@H]3C(=O)N[C@H](C(=O)N[C@H](C(=O)O)c4cc(O)cc(O)c4-c4cc3ccc4O)[C@H](O)c3ccc(c(/C=C/c4ccc(C(F)(F)F)cc4)c3)Oc3cc2cc(c3O[C@@H]2O[C@H](CO)[C@@H](O)[C@H](O)[C@H]2O[C@H]2C[C@](C)(N)[C@H](O)[C@H](C)O2)Oc2ccc(cc2Cl)[C@H]1O`, for which the MIC was found to be 1 µg/mL (≈ 0.631 µM) in assay [1]; 64 µg/mL (≈ 40.4 µM) in assay [2]; 1 µg/mL (≈ 0.631 µM) in assay [3]; 2 µg/mL (≈ 1.26 µM) in assay [4]; 1 µg/mL (≈ 0.631 µM) in assay [5]; 32 µg/mL (≈ 20.2 µM) in [6]. Moreover, the MIC was 2 µg/mL (≈ 1.26 µM) in [7], > 64 µg/mL in [8] and 64 µg/mL (≈ 40.4 µM) in [9].

Regarding `CN[C@H](CC(C)C)C(=O)N[C@H]1C(=O)N[C@@H](CC(N)=O)C(=O)N[C@H]2C(=O)N[C@H]3C(=O)N[C@H](C(=O)N[C@H](C(=O)O)c4cc(O)cc(O)c4-c4cc3ccc4O)[C@H](O)c3ccc(c(-c4ccccc4)c3)Oc3cc2cc(c3O[C@@H]2O[C@H](CO)[C@@H](O)[C@H](O)[C@H]2O[C@H]2C[C@](C)(N)[C@H](O)[C@H](C)O2)Oc2ccc(cc2Cl)[C@H]1O`, the MIC in assay [1] was 4 µg/mL (≈ 2.68 µM); in [2] it was > 64 µg/mL; in [3], 2 µg/mL (≈ 1.34 µM); in assay [4], 64 µg/mL (≈ 42.9 µM); in [5] it was 4 µg/mL (≈ 2.68 µM); in assay [6] it was > 64 µg/mL. The values for the MIC in assay [7], in assay [8] and in [9] were 4 µg/mL (≈ 2.68 µM), > 64 µg/mL and 64 µg/mL (≈ 42.9 µM), respectively.
